In patent publication EP0134242B1, “[…] ANTIGEN” (NEW YORK UNIVERSITY, priority 1983, dated 1984):

What was measured:
monoclonal antibody 2G3 = assay: Two-site immunoradiometric assay with monoclonal antibody 2G3 and synthetic peptides; assay type: binding, mouse
Protocol: Wells of microtiter plates (Falcon 3911) were incubated overnight at 4°C with 50 µl of a 10 µg/ml solution in PBS of the monoclonal 2G3 anti-CS protein of P.knowlesi. The wells were washed with PBS and then incubated for 2 hours at room temperature, with PBS-Tween 20 (0.05% (w/v), and then for 3 additional hours with PBS-BSA (1% (w/v). The synthetic peptides were diluted serially in PBS-BSA-Tween 20, and 30 µl aliquots of the dilutions were delivered to the bottom of individual wells. The plates were incubated overnight in the refrigerator, washed with PBS-BSA-Tween 20, and incubated with 5.0 µl (10 ng) of ¹²⁵I-labeled monoclonal antibody 2G3 diluted in PBS-BSA-Tween 20 (about 100,000 cpm). Controls consisted of plates coated with a non-relevant monoclonal antibody of the same isotype as 2G3. Specific counts were found only in wells incubated with the 24-MER and they were proportional to the dose of peptide added to the well.

[1] = system: monoclonal antibody (2G3); assay: Inhibition by 12-MER of the binding of P. knowlesi CS protein to monoclonal antibody 2G3 (two-site assay); design: species or system mouse
Protocol: To distinguish between these possibilities, an assay was conducted to determine the ability of the 12-MER to inhibit the interaction between the CS proteins of P.knowlesi and the monoclonal antibody 2G3. The inhibition assay was performed as follows: Wells of microtiter plates were coated with the monoclonal antibody 2G3 washed with Tween-20, saturated with BSA as described supra. In one series of tubes, the 12-MER was serially diluted in PBS-BSA-Tween 20. In a second series of tubes, an extract of P.knowlesi sporozoites (prepared as described by Cochrane, et al, supra) was serially diluted in PBS-BSA-Tween 20. Aliquots of each dilution of sporozoites were mixed with equal volumes of all dilutions of 12-MER. 30 µl of these mixtures were then added to the bottom of the 2G3-coated wells. As positive and negative controls, 30 µl aliquots of sporozoite dilutions mixed with PBS-BSA-Tween 20 were added to other wells which had been precoated with 2G3 or with a non-relevant monoclonal antibody. After overnight incubation in the refrigerator, the wells were washed and 50 µl (10 ug) of ¹²⁵I-labeled 2G3 diluted in PBS-BSA-Tween 20 were added. Following an additional incubation at room temperature for 1 hour, the wells were washed and counted in a gamma counter. The results are shown in Table V. The 12-MER inhibited, in a dose-dependent fashion, the interaction of the P.knowlesi CS protein with 2G3.

antibody 8E11 = assay: Inhibition by synthetic peptides of binding of radiolabelled monoclonal antibody to CS protein (radioimmunoassay); design: species or system mouse; conditions: at a concentration of 10⁻²M
Protocol: Competitive inhibition of the antigen-antibody reaction by the thus synthesized peptides was measured by the following radioimmunoassay. P.knowlesi sporozoite CS protein was used as the antigen. • a) Preparation of antigen: 3,000 purified P. knowlesi sporozoites (Vanderberg et al., Military Medicine 134:1183, 1969) in 50 µl of phosphate buffered saline (PBS) containing protease inhibitors, were delivered to the bottom of polystyrene (Falcon 3911 plate, B-D and Co., Oxnard, Calif.) microtiter plates, which were sealed with parafilm and frozen at -70°C for at least ten minutes. The plates were then allowed to defrost slowly at room temperature. This procedure was repeated six times. Then the plates were incubated at 4°C overnight, and at 56°C for five minutes. The P. knowlesi extract was then removed from the wells and these were washed three times with PBS containing 1% bovine serum albumin (BSA) and 0.1% NaN₃. […] The microtiter plates were incubated at 4°C for 18 hours, washed 5 times with PBS-BSA-NaN₃ and then the wells were counted for well-bound antibody. […]

[2] = system: 2G3, 5H8, and 8B8 antibodies; assay: Inhibition immunoassays with peptide analogs, results in words for several antibodies together; assay type: binding, mouse; conditions: for inhibition of the reaction of antibodies 2G3, 5H8 and 8B8 with the antigen (in words): P. knowlesi CS protein as antigen
Protocol: Competitive inhibition of the antigen-antibody reaction by the thus synthesized peptides was measured by the following radioimmunoassay. P.knowlesi sporozoite CS protein was used as the antigen. • a) Preparation of antigen: 3,000 purified P. knowlesi sporozoites (Vanderberg et al., Military Medicine 134:1183, 1969) in 50 µl of phosphate buffered saline (PBS) containing protease inhibitors, were delivered to the bottom of polystyrene (Falcon 3911 plate, B-D and Co., Oxnard, Calif.) microtiter plates, which were sealed with parafilm and frozen at -70°C for at least ten minutes. The plates were then allowed to defrost slowly at room temperature. This procedure was repeated six times. Then the plates were incubated at 4°C overnight, and at 56°C for five minutes. The P. knowlesi extract was then removed from the wells and these were washed three times with PBS containing 1% bovine serum albumin (BSA) and 0.1% NaN₃. The wells were then filled with PBS-BSA-NaN₃ and incubated for a few hours at room temperature. • b) Preparation of peptides and two-site radio immunoassay to determine the inhibitory activity of the analogs; • (1) All synthetic peptides were dissolved in PBS at a concentration of 10 mM and subsequently diluted serially in PBS-1% BSA/0.1%NaN₃. Twenty-five µl of serial dilutions of each peptide were added to the wells coated with antigen. Control wells received only the diluent. Then, 25 µl of the ¹²⁵I-labelled monoclonal antibody (about 5-10ng, 10⁵cpm) were added to the wells. The microtiter plates were incubated at 4°C for 18 hours, washed 5 times with PBS-BSA-NaN₃ and then the wells were counted for well-bound antibody.
The series of shorter analogs and one peptide overlapping two epitopes (7-6) shown in Table VII was used to analyze the specificity of the 2G3, 5H8, and 8B8 antibodies using the inhibition immunoassays described in Examples 10 and 11. […] On a molar basis, their activities were similar, although in some instances the larger peptides appeared to be slightly better inhibitors. […]

Row | Substance | Amount of radiolabeled 2G3 (cpm) bound in wells (monoclonal antibody 2G3; peptide 5. µg/ml incubated with the solid-phase antibody 2G3) | Amount of radiolabeled 2G3 (cpm) bound in wells (monoclonal antibody 2G3; peptide 50. µg/ml incubated with the solid-phase antibody 2G3) | Amount of radiolabeled 2G3 (cpm) bound in wells (monoclonal antibody 2G3; peptide 500. µg/ml incubated with the solid-phase antibody 2G3) | Amount of radiolabeled 2G3 (cpm) bound in wells (monoclonal antibody 2G3; peptide .5 µg/ml incubated with the solid-phase antibody 2G3) | Amount of 2G3 bound (cpm) in the presence of the 12-MER inhibitor ([1]; 12-MER 0.08 mg/ml, P. knowlesi extract 10³ sporozoites/ml (no inhibitor: 156)) | Amount of 2G3 bound (cpm) in the presence of the 12-MER inhibitor ([1]; 12-MER 0.08 mg/ml, P. knowlesi extract 10⁴ sporozoites/ml (no inhibitor: 1353)) | Amount of 2G3 bound (cpm) in the presence of the 12-MER inhibitor ([1]; 12-MER 0.08 mg/ml, P. knowlesi extract 10⁵ sporozoites/ml (no inhibitor: 4390)) | Amount of 2G3 bound (cpm) in the presence of the 12-MER inhibitor ([1]; 12-MER 0.08 mg/ml, P. knowlesi extract 10⁶ sporozoites/ml (no inhibitor: 5582)) | Amount of 2G3 bound (cpm) in the presence of the 12-MER inhibitor ([1]; 12-MER 0.6 mg/ml, P. knowlesi extract 10³ sporozoites/ml (no inhibitor: 156)) | Amount of 2G3 bound (cpm) in the presence of the 12-MER inhibitor ([1]; 12-MER 0.6 mg/ml, P. knowlesi extract 10⁴ sporozoites/ml (no inhibitor: 1353)) | Amount of 2G3 bound (cpm) in the presence of the 12-MER inhibitor ([1]; 12-MER 0.6 mg/ml, P. knowlesi extract 10⁵ sporozoites/ml (no inhibitor: 4390)) | Amount of 2G3 bound (cpm) in the presence of the 12-MER inhibitor ([1]; 12-MER 0.6 mg/ml, P. knowlesi extract 10⁶ sporozoites/ml (no inhibitor: 5582)) | Amount of 2G3 bound (cpm) in the presence of the 12-MER inhibitor ([1]; 12-MER 5.0 mg/ml, P. knowlesi extract 10³ sporozoites/ml (no inhibitor: 156)) | Amount of 2G3 bound (cpm) in the presence of the 12-MER inhibitor ([1]; 12-MER 5.0 mg/ml, P. knowlesi extract 10⁴ sporozoites/ml (no inhibitor: 1353)) | Amount of 2G3 bound (cpm) in the presence of the 12-MER inhibitor ([1]; 12-MER 5.0 mg/ml, P. knowlesi extract 10⁵ sporozoites/ml (no inhibitor: 4390)) | Amount of 2G3 bound (cpm) in the presence of the 12-MER inhibitor ([1]; 12-MER 5.0 mg/ml, P. knowlesi extract 10⁶ sporozoites/ml (no inhibitor: 5582)) | inhibitory effect on binding of radiolabelled 8E11 to the CS protein (antibody 8E11) | inhibition of the reaction of antibodies 2G3, 5H8 and 8B8 with the antigen (in words) [2] | activity in the inhibition assays of the foregoing Examples (in words) ([2]; assayed as in the foregoing Examples (antibodies 2G3, 5H8, 8B8, 8E11))
1 | H₂N-GlnAlaGlnGlyAspGlyAla-AsnAlaGlyGlnPro-COOH (H-QAQGDGANAGQP-OH) [Peptide 12-MER] | 40 cpm | 103 cpm | 157 cpm | 0 cpm | 72 cpm | 102 cpm | 1221 cpm | 3893 cpm | 0 cpm | 70 cpm | 781 cpm | 3018 cpm | 37 cpm | 3 cpm | 361 cpm | 1099 cpm | no appreciable inhibitory effect | strongly inhibitory | –
2 | Asp₅-Gly-Ala-Asn-Ala-Gly-Gln-Pro₁₂ [5 - 12] | – | – | – | – | – | – | – | – | – | – | – | – | – | – | – | – | – | strongly inhibitory | –
3 | Ala₇-Asn₈-Ala₉-Gly₁₀-Gln₁₁-Pro₁₂-Gln₁-Ala₂-Gln₃-Gly₄-Asp₅-Gly₆ | – | – | – | – | – | – | – | – | – | – | – | – | – | – | – | – | – | – | inactive
